Laboratory results: patent publication US20230279379A1, “METHODS AND MICROFLUIDIC DEVICE FOR PRODUCING EXTRACELLULAR VESICLES” (THE BOARD OF TRUSTEES OF THE UNIVERSITY OF ILLINOIS, priority 2022, published 2023)
Entries after “also recorded” stand apart in the source; their conditions may differ. Where no end group is shown, it is not given here.

Tested on: Primary human MSCs
Test: EV secretion per cell from MSCs on hydrogel substrates, nanoparticle tracking analysis
Type: cell-based
Details: for EV secretion vs vehicle: 3 μM MnCl2 during and after adhesion, elastic alginate-RGD hydrogels, soft and stiff
Method: Cell Seeding on Hydrogels. Hydrogel discs were placed in ultra-low binding polystyrene well plates (Corning) to ensure cells attach to hydrogels and not the plate surface. Hydrogels were washed with Hank's buffered salt solution (HBSS, Thermo Fisher Scientific) for at least 3 days before seeding cells. Cells were seeded at a low density (25 cells/mm^2). After seeding, hydrogels were washed thoroughly to remove unattached cells. Drug treatments of 3 μM MnCl2 (Thermo Fisher Scientific), 200 nM EMD 121974 sold under the tradename Cilengitide® (Cayman) and 5 μM CK869 (Cayman) were applied during and after cell adhesion to substrates. To evaluate the number of live cells seeded on substrates, cells were detached by incubating with a natural enzyme mixture with proteolytic and collagenolytic enzyme activity sold under the tradename ACCUTASE® Cell Detachment Solution (Innovative Cell Technologies, Inc.) for 10 minute at 37° C. Cells were then washed by centrifugation and directly added to HBSS containing calcein AM (1:2000; Biotium), ethidium bromide (1:2000; Thermo Fisher Scientific), and a predefined number of allophycocyanin (APC) beads (BD). After incubation at room temperature (RT) for 10 minutes, the samples were analyzed for live and dead cell number by flow cytometry.
Particle Size and Number Characterization. Particle size and number were obtained using Nanoparticle Tracking Analysis 3.2 (NTA) via NanoSight NS300 (Malvern) using a 405 nm laser. Samples were introduced by syringe pump at a rate 100 μL/min. Three thirty-second videos were acquired using camera level 14 followed by detection threshold 7. Camera focus, shutter, blur, minimum track length, minimum expected particle size and maximum jump length were set automatically by the software. Samples were diluted as needed to maintain particles per video from 100-2000. To ensure specificity, all samples were tested as compared to appropriate blank conditions.
To test the effect of substrate mechanics on EV secretion from MSCs, hydrogel substrates were engineered which were composed of alginate polymer conjugated with the cell adhesion peptide Arg-Gly-Asp (RGD) that binds primarily to αvβ3 and α5β1 integrins. Alginate-RGD hydrogels can be formed either covalently through adipic acid dihydrazide or physically through divalent cations, resulting in elastic or stress-relaxing hydrogels, respectively. For both types of hydrogels, elastic modulus (Young's modulus, E) of ˜3 kPa ‘soft’ and E ˜20 kPa ‘stiff’ were considered values that represent a physiologically relevant range of substrate elasticity for MSC mechanosensing, while E is ˜0.1 GPa for conventional plastic substrates. Primary human bone marrow MSCs were allowed to adhere to substrates for 24 hours followed by washout and collection of the serum-free conditioned medium from MSCs after 24 hours. After centrifugation of the medium at 10,000 g to remove cell, apoptotic, and larger particle fractions, particles remaining in the medium were analyzed by nanoparticle tracking analysis and normalized to the number of live adhered cells counted by flow cytometry (see Methods). MSCs were seeded at low density (˜25 cells/mm^2) to avoid potential effects from cell-cell interactions. […] Thus, focus was placed on the EVs remaining in the supernatant after the 10,000 g centrifugation. For these EVs, the particle size distribution remained similar across different substrates with median diameter ˜120 nm (FIG. 1B). […] Moreover, EVs from different substrates expressed similar levels of late endosomal markers CD63 and CD9. Importantly, levels of ribosomal RNA (rRNA) in particle preparations were similar across hydrogels or plastic substrates, and rRNA as a percentage of total RNA was lower than that found in untreated MSCs or particles derived from H2O2-treated apoptotic MSCs, ruling out apoptosis as a potential factor of increased EV secretion on the soft hydrogel. […]

Q: For `CC(C)[C@H]1C(=O)N[C@@H](CCCN=C(N)N)C(=O)NCC(=O)N[C@@H](CC(=O)O)C(=O)N[C@H](Cc2ccccc2)C(=O)N1C` [EMD 121974], which EV secretion (200 nM EMD 121974 during and after adhesion, soft and stiff hydrogels) is on record?
A: Its EV secretion is “significantly increased EV secretion on both soft and stiff hydrogels; also recorded: enhances EV secretion”.

Q: For `[Cl][Mn][Cl]` [MnCl2], which “EV secretion vs vehicle” value is on record?
A: Its value is “inhibits EV secretion”.

Q: What about the “EV secretion vs vehicle” value (listed as Mn^2+) of the same molecule?
A: The value was “decreased to a greater extent on the soft hydrogel than the stiff hydrogel”.

Q: For `Cc1ccc2c(c1)C(=O)C1(O)CCN(c3ccccc3)C1=N2` (stereo not drawn) [blebbistatin], which exosome secretion (50 μM blebbistatin, soft or stiff elastic alginate-RGD hydrogels) is on record?
A: Its exosome secretion is “did not impact exosome secretion”.

Q: For “RGD: cell adhesion peptide, amino acid sequence GGGGRGDSP (SEQ ID NO:1), conjugated to hydrogel (also: conjugated to hydrogel)”, which “EV secretion on decreasing the amount of RGD conjugated in hydrogels” value (FIG. 5) is on record?
A: Its value is “significantly increases EV secretion”.

Q: And the “increase in EV secretion per cell” value (decreasing RGD concentration from 0.8 to 0.16 mM, both soft and stiff hydrogels)?
A: Its value is about 2 fold.
